Assay results taken from US20100160266A1, “ORGANIC COMPOUNDS” (NABRIVA TH[…], priority 2005, published 2010).

System: anaerobic bacteria
Test: in vitro acne assays: MIC by agar dilution technique on Wilkins-Chalgren Agar (NCCLS guidelines)
Assay type: cell-based
Settings: compared with the same pleuromutilin in the form of a hydrochloride
Procedure: E.g. in commercially available in vitro acne assays (the determination of the minimal inhibitory concentration (MIC) is performed according to the approved NCCLS guidelines^1) by agar dilution technique on Wilkins-Chalgren Agar—1) National committee for clinical laboratory standards. Methods for Antimicrobial susceptibility testing of anaerobic bacteria. 1993.

C=CC1(C)CC(OC(=O)CSC2CCCN(C(=O)C(N)C(C)C)C2)C2(C)C(C)CCC3(CCC(=O)C32)C(C)C1O [Example 1, 14-O—[(N—((R)-Valyl)-piperidine-3(S)-yl)-sulfanylacetyl)-mutilin]
activity in in vitro acne assays (minimal inhibitory concentration, MIC): remarkably better activity
